One assay addresses SARS-CoV-2 3CLpro (Severe acute respiratory syndrome coronavirus 2, UniProt P0DTD1). As to the kind of experiment: biochemical.
For another assay, the target named is HCoV-229E 3CLpro (Human coronavirus 229E, UniProt P0C6X1). Kind of assay: HCoV-229E 3CLpro inhibition assay (FRET). Type of assay: biochemical.
The target in a further assay is MERS-CoV 3CLpro (Middle East respiratory syndrome-related coronavirus, UniProt K9N7C7). Kind of assay: biochemical.
The next assay addresses SARS-CoV 3CLpro (Severe acute respiratory syndrome coronavirus, UniProt P0C6X7). Kind of assay: biochemical.

For orientation: pIC50 means the IC50 on a negative log10 scale, so that one unit is a factor of ten.

Molecules are shown by their SMILES. pIC50: −log10 of the molar value. Where two headings read alike, the source gives them in different places.

Sequence of HCoV-229E 3CLpro (P0C6X1 2966-3267): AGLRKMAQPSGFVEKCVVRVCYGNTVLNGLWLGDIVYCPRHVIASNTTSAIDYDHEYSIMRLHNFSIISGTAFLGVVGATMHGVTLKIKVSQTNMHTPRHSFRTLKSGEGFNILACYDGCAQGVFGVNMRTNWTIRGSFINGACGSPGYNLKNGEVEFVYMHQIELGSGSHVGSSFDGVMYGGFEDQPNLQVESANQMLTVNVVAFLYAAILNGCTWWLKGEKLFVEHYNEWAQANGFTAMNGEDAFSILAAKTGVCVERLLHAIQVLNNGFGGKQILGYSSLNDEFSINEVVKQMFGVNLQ
Sequence of MERS-CoV 3CLpro (K9N7C7 3248-3553): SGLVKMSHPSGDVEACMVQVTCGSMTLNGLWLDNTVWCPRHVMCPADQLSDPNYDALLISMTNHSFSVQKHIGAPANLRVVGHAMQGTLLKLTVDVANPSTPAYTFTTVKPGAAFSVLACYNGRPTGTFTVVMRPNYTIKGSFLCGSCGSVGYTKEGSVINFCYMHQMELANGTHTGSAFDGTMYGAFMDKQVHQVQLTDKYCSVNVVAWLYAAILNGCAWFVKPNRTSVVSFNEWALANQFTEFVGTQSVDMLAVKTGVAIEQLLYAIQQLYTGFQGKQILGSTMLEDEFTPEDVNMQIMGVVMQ

As to `CC[C@H](C)[C@H](NC(=O)C1CC1(F)F)C(=O)N1C[C@H]2[C@@H]([C@H]1C(=O)NN(C[C@@H]1CCNC1=O)C(=O)[C@H](F)Cl)C2(C)C` (mixture of isomers) [Example 53, Rac-2,2-difluoro-N-[(1S,2S)-2-methyl-1-[(1R,2S,5S)-6,6-dimethyl-2-[[[(2R)-2-chloro-2-fluoro-acetyl]-[[(3S)-2-oxopyrrolidin-3-yl]methyl]amino]carbamoyl]-3-azabicyclo[3.1.0]hexane-3-carbonyl]butyl]cyclopropanecarboxamide], the pIC50 against SARS-CoV-2 3CLpro was 8.10; against HCoV-229E 3CLpro it was 7.49; at MERS-CoV 3CLpro, 7.06; on SARS-CoV 3CLpro, 7.89.
Taken in the same sequence, the figures for `CC[C@H](C)[C@H](NC(=O)C(C)(C)F)C(=O)N1C[C@@H]2CCC[C@@H]2[C@H]1C(=O)NN(C[C@@H]1CCNC1=O)C(=O)[C@H](F)Cl` [Example 42, N-[(1S,2S)-1-[(3S,3aS,6aR)-3-[[[(2R)-2-chloro-2-fluoro-acetyl]-[[(3S)-2-oxopyrrolidin-3-yl]methyl]amino]carbamoyl]-3,3a,4,5,6,6a-hexahydro-1H-cyclopenta[c]pyrrole-2-carbonyl]-2-methyl-butyl]-2-fluoro-2-methyl-propanamide] were 8.15, 7.62, 7.09 and 8.05.
In the same order, the values of `CCCC(=O)N[C@H](C(=O)N1C[C@@H]2CCC[C@@H]2[C@H]1C(=O)NN(C[C@@H]1CCNC1=O)C(=O)[C@H](F)Cl)[C@@H](C)CC` [Example 46, N-[(1S,2S)-1-[(3S,3aS,6aR)-3-[[[(2R)-2-chloro-2-fluoro-acetyl]-[[(3S)-2-oxopyrrolidin-3-yl]methyl]amino]carbamoyl]-3,3a,4,5,6,6a-hexahydro-1H-cyclopenta[c]pyrrole-2-carbonyl]-2-methyl-butyl]butanamide] are 8.10, 7.31, 6.82 and 7.54.
Taken in the same sequence, the figures for `CC(C)(C)[C@H](NC(=O)c1cc(C(F)(F)F)on1)C(=O)N1C[C@H]2[C@@H]([C@H]1C(=O)NN(C[C@@H]1CCNC1=O)C(=O)[C@H](F)Cl)C2(C)C` [Example 16, N-[(1S)-1-[(1R,2S,5S)-2-[[[(2R)-2-chloro-2-fluoro-acetyl]-[[(3S)-2-oxopyrrolidin-3-yl]methyl]amino]carbamoyl]-6,6-dimethyl-3-azabicyclo[3.1.0]hexane-3-carbonyl]-2,2-dimethyl-propyl]-5-(trifluoromethyl)isoxazole-3-carboxamide] were 7.70, 6.80, 6.37 and 6.45.
With `CC[C@H](C)[C@H](NC(=O)[C@H](F)Cl)C(=O)N1C[C@H]2[C@@H]([C@H]1C(=O)NN(C[C@H]1CCCNC1=O)C(=O)[C@H](F)Cl)C2(C)C` [Example 194, (2R)-2-chloro-N-[(1S,2S)-1-[(1R,2S,5S)-2-[[[(2R)-2-chloro-2-fluoro-acetyl]-[[(3R)-2-oxo-3-piperidyl]methyl]amino]carbamoyl]-6,6-dimethyl-3-azabicyclo[3.1.0]hexane-3-carbonyl]-2-methyl-butyl]-2-fluoro-acetamide], the negative logarithm of the IC50 (pIC50) was 7.82 at SARS-CoV-2 3CLpro, 7.54 on HCoV-229E 3CLpro, 6.95 on MERS-CoV 3CLpro and 7.60 against SARS-CoV 3CLpro.
Taken in the same sequence, the figures for `CC[C@@H](C)[C@H](NC(=O)C(F)F)C(=O)N1C[C@H]2[C@@H]([C@H]1C(=O)NN(C[C@@H]1CCNC1=O)C(=O)[C@H](F)Cl)C2(C)C` [Example 112, N-[(1S,2R)-1-[(1R,2S,5S)-2-[[[(2R)-2-chloro-2-fluoro-acetyl]-[[(3S)-2-oxopyrrolidin-3-yl]methyl]amino]carbamoyl]-6,6-dimethyl-3-azabicyclo[3.1.0]hexane-3-carbonyl]-2-methyl-butyl]-2,2-difluoro-acetamide] were 8.10, 7.66, 7.15 and 7.85.
With `CC[C@H](C)[C@H](NC(=O)[C@@H](F)Cl)C(=O)N1C[C@@H]2CCC[C@@H]2[C@H]1C(=O)NN(C[C@@H]1CCCNC1=O)C(=O)[C@@H](F)Cl` [Example 191, (2S)—N-[(1S,2S)-1-[(3S,3aS,6aR)-3-[[[(2S)-2-chloro-2-fluoro-acetyl]-[[(3S)-2-oxo-3-piperidyl]methyl]amino]carbamoyl]-3,3a,4,5,6,6a-hexahydro-1H-cyclopenta[c]pyrrole-2-carbonyl]-2-methyl-butyl]-2-chloro-2-fluoro-acetamide], the pIC50 at SARS-CoV-2 3CLpro (read-out: IC50 in SARS-CoV-2 3CLpro assay) is 8.15; against HCoV-229E 3CLpro it was 7.57; against MERS-CoV 3CLpro, 7.31; on SARS-CoV 3CLpro it was 7.96.
In the case of `CC[C@@H](C)[C@H](NC(=O)C(C)(F)F)C(=O)N1C[C@@H]2CCC[C@@H]2[C@H]1C(=O)NN(C[C@@H]1CCNC1=O)C(=O)[C@H](F)Cl` [Example 76, N-[(1S,2R)-1-[(3S,3aS,6aR)-3-[[[(2R)-2-chloro-2-fluoro-acetyl]-[[(3S)-2-oxopyrrolidin-3-yl]methyl]amino]carbamoyl]-3,3a,4,5,6,6a-hexahydro-1H-cyclopenta[c]pyrrole-2-carbonyl]-2-methyl-butyl]-2,2-difluoro-propanamide], the pIC50 at SARS-CoV-2 3CLpro is 8.10; against HCoV-229E 3CLpro, 7.06; against MERS-CoV 3CLpro, 6.71; against SARS-CoV 3CLpro, 7.82.
In the same order, the values of `CC(C)(C)[C@H](NC(=O)[C@@H]1CC1(F)F)C(=O)N1C[C@H](C(F)(F)F)C[C@H]1C(=O)NN(C[C@@H]1CCNC1=O)C(=O)[C@@H](F)Cl` [Example 159, (1S)—N-[(1S)-1-[(2S,4R)-2-[[[(2S)-2-chloro-2-fluoro-acetyl]-[[(3S)-2-oxopyrrolidin-3-yl]methyl]amino]carbamoyl]-4-(trifluoromethyl)pyrrolidine-1-carbonyl]-2,2-dimethyl-propyl]-2,2-difluoro-cyclopropanecarboxamide] are 7.89, 7.40, 6.99 and 7.89.
In the same order, the values of `CCC(C)(C)[C@H](NC(=O)C1CC1)C(=O)N1C[C@@H]2CCC[C@@H]2[C@H]1C(=O)NN(C[C@@H]1CCCNC1=O)C(=O)[C@H](F)Cl` [Example 167a, N-[(1S)-1-[(3S,3aS,6aR)-3-[[[(2R)-2-chloro-2-fluoro-acetyl]-[[(3S)-2-oxo-3-piperidyl]methyl]amino]carbamoyl]-3,3a,4,5,6,6a-hexahydro-1H-cyclopenta[c]pyrrole-2-carbonyl]-2,2-dimethyl-butyl]cyclopropanecarboxamide] are 8.00, 7.28, 6.77 and 7.82.
Taken in the same sequence, the figures for `CC[C@@H](C)[C@H](NC(=O)C1CC1(F)F)C(=O)N1C[C@H]2[C@@H]([C@H]1C(=O)NN(C[C@@H]1CCNC1=O)C(=O)[C@@H](F)Cl)C2(C)C` (mixture of isomers) [Example 124, Rac-2,2-difluoro-N-[(1S,2R)-2-methyl-1-[(1R,2S,5S)-6,6-dimethyl-2-[[[(2S)-2-chloro-2-fluoro-acetyl]-[[(3S)-2-oxopyrrolidin-3-yl]methyl]amino]carbamoyl]-3-azabicyclo[3.1.0]hexane-3-carbonyl]butyl]cyclopropanecarboxamide] were 7.59, 7.39, 6.94 and 7.35.
With `CC[C@H](C)[C@H](NC(=O)C(F)F)C(=O)N1C[C@@H]2CCC[C@@H]2[C@H]1C(=O)NN(C[C@@H]1CCNC1=O)C(=O)[C@H](F)Cl` [Example 39, N-[(1S,2S)-1-[(3S,3aS,6aR)-3-[[[(2R)-2-chloro-2-fluoro-acetyl]-[[(3S)-2-oxopyrrolidin-3-yl]methyl]amino]carbamoyl]-3,3a,4,5,6,6a-hexahydro-1H-cyclopenta[c]pyrrole-2-carbonyl]-2-methyl-butyl]-2,2-difluoro-acetamide], the pIC50 was 8.05 at SARS-CoV-2 3CLpro, 7.54 against HCoV-229E 3CLpro, 7.15 on MERS-CoV 3CLpro and 7.96 at SARS-CoV 3CLpro.
`CCC(C)(C)[C@H](NC(=O)C1CC1)C(=O)N1CC(C)(C)C[C@H]1C(=O)NN(C[C@H]1CCCNC1=O)C(=O)[C@H](F)Cl` [Example 168b, N-[(1S)-1-[(2S)-2-[[[(2R)-2-chloro-2-fluoro-acetyl]-[[(3R)-2-oxo-3-piperidyl]methyl]amino]carbamoyl]-4,4-dimethyl-pyrrolidine-1-carbonyl]-2,2-dimethyl-butyl]cyclopropanecarboxamide]: the pIC50 on SARS-CoV-2 3CLpro was 7.00; against HCoV-229E 3CLpro, 6.66; on MERS-CoV 3CLpro, 5.68; against SARS-CoV 3CLpro, 6.73.
Taken in the same sequence, the figures for `CC(C)(C)[C@H](NC(=O)C1CC1)C(=O)N1C[C@H]2[C@@H]([C@H]1C(=O)NN(C[C@@H]1CCNC1=O)C(=O)[C@H](F)Cl)C2(C)C` [Example 12, N-[(1S)-1-[(1R,2S,5S)-2-[[[(2R)-2-chloro-2-fluoro-acetyl]-[[(3S)-2-oxopyrrolidin-3-yl]methyl]amino]carbamoyl]-6,6-dimethyl-3-azabicyclo[3.1.0]hexane-3-carbonyl]-2,2-dimethyl-propyl]cyclopropanecarboxamide] were 7.82, 7.59, 6.97 and 7.77.
Taken in the same sequence, the figures for `CCC(CC)[C@H](NC(=O)C(F)F)C(=O)N1C[C@@H]2CCC[C@@H]2[C@H]1C(=O)NN(C[C@@H]1CCNC1=O)C(=O)[C@H](F)Cl` [Example 136, N-[(1S)-1-[(3S,3aS,6aR)-3-[[[(2R)-2-chloro-2-fluoro-acetyl]-[[(3S)-2-oxopyrrolidin-3-yl]methyl]amino]carbamoyl]-3,3a,4,5,6,6a-hexahydro-1H-cyclopenta[c]pyrrole-2-carbonyl]-2-ethyl-butyl]-2,2-difluoro-acetamide] were 7.80, 7.26, 7.13 and 7.82.

(Values after patent US20250059171A1 (Hoffmann-La Roche Inc., priority 2021, published 2025).)
